Reference: patent US10561614B2, “Tenofovir granules” (STEERLIFE INDIA PRIVATE LIMITED, priority 2017, dated 2020)

Experiment: Organic impurities of TDF granules by HPLC (USP Pending Monograph procedure 1), before and after twin screw granulation
Format: physicochemical
Conditions: initial, no storage
Procedure: The test of organic impurities of Tenofovir Disoproxil Fumarate granules carried out by HPLC (Make-Agilent 1260 Infinity series).
The Tenofovir Disoproxil Fumarate granules sample was analyzed for organic impurities as per method based on Organic impurities, procedure 1 of USP Pending Monographs of Tenofovir Disoproxil Fumarate v.1 Authorized Sep. 1, 2011.
The standard, Tenofovir Disoproxil Fumarate (TDF) was prepared in solution A. concentration 0.502 μg/mL in solution. The sample i.e., TDF granules of the present invention was prepared in solution A, concentration 520.05 μg/mL.
The standard and sample solution was injected in chromatographic system and following impurity results are reported.
The test of organic impurities of Tenofovir Disoproxil Fumarate granules carried out by HPLC (Agilent 1260 Infinity series).
The Tenofovir Disoproxil Fumarate granules sample were analyzed for organic impurities as per Organic impurities, procedure 1 of USP Pending Monographs of Tenofovir Disoproxil Fumarate v.1 Authorized Sep. 1, 2011.
The standard [Tenofovir Disoproxil Fumarate (TDF)] was prepared in solution A. concentration 0.502 μg/mL in solution.
The sample [TDF granules of the present invention] was prepared in solution A, concentration 520.05 μg/mL.

In the case of `CC(C)OC(=O)OCOP(=O)(CO[C@H](C)Cn1cnc2c(N)ncnc21)OCOC(=O)OC(C)C.O=C(O)/C=C/C(=O)O` [Unprocessed TDF API, 9-[(R)-2-[[bis[[(isopropoxycarbonyl)oxy]-methoxy]phosphinyl]methoxy]propyl]adenine fumarate (1:1)], the “(R)-9-(2-Phosphonomethoxypropyl)adenine impurity” value is reported as “BDL”, the Adenine impurity is reported as “Not detected” and the “Any individual unspecified impurity” value is reported as 0.02%. The “Tenofovir disoproxil carbamate impurity” value was “Not detected”, the “Tenofovir disoproxil dimer impurity” value was 0.04% and the “Tenofovir disoproxil ethyl ester impurity” value was 0.03%. The “Tenofovir isopropyl isoproxil impurity” value was 0.17%, the “Tenofovir isoproxil monoester impurity” value was 0.48% and the Total impurities was 0.84%. The Adenine impurity (listed as Unprocessed (API)) was “BDL”, the “Any individual unspecified impurity” value (listed as Unprocessed (API)) was 0.015% and the “Tenofovir isopropyl isoproxil impurity” value (listed as Unprocessed (API)) was 0.118%. For the same compound, the “Tenofovir isoproxil monoester impurity” value (listed as Unprocessed (API)) was 0.321% and the Total impurities (listed as Unprocessed (API)) was 0.490%.
